These results are taken from ChEMBL document CHEMBL3425446, “Isolation, semi-synthesis and bio-evaluation of spatane derivatives from the brown algae Stoechospermum marginatum” (Bioorg Med Chem Lett, 2015).

Test [1] deals with Escherichia coli. Kind of test: Antibacterial activity against Escherichia coli assessed as compound concentration required to complete growth inhibition at 8 hrs by tube dilution method. The test is classed as functional.
In test [2] the test system is Micrococcus luteus. Kind of test: Antibacterial activity against Micrococcus luteus assessed as growth inhibition at 0.5 mg/ml after 24 hrs by well diffusion method. The test is classed as functional. The following applies: read-out: DIZ. (In general: In agar diffusion tests the substance spreads into inoculated agar from a disc or well.)
Test [3] can be described thus: Cytotoxicity against mouse B16F10 cells assessed as decrease in cell number after 24 hrs by MTT assay. It counts as functional, cell-based. The following applies: B16-F10, 24 h.
The test system of test [4] is Bacillus subtilis. Kind of test: Antibacterial activity against Bacillus subtilis assessed as compound concentration required to complete growth inhibition at 8 hrs by tube dilution method. It counts as functional.
Another test deals with Aspergillus niger. Nature of the test: Antifungal activity against Aspergillus niger assessed as growth inhibition at 0.5 mg/ml after 48 hrs by well diffusion method. It counts as functional, organism-based.
For test [5], the system named is Bacillus subtilis. Nature of the test: Antibacterial activity against Bacillus subtilis assessed as growth inhibition at 0.5 mg/ml after 24 hrs by well diffusion method. The following applies: read-out: DIZ. It counts as functional.
The test system of test [6] is Micrococcus luteus. Nature of the test: Antibacterial activity against Micrococcus luteus assessed as compound concentration required to complete growth inhibition at 8 hrs by tube dilution method. It counts as functional.
The test system of test [7] is Klebsiella pneumoniae. Kind of test: Antibacterial activity against Klebsiella pneumoniae assessed as growth inhibition at 0.5 mg/ml after 24 hrs by well diffusion method. The test is classed as functional. The following applies: read-out: DIZ.
Test [8] has as its system Escherichia coli. Nature of the test: Antibacterial activity against Escherichia coli assessed as growth inhibition at 0.5 mg/ml after 24 hrs by well diffusion method. The following applies: read-out: DIZ. The test is classed as functional.
Test [9] is described as follows: Cytotoxicity against human U937 cells assessed as decrease in cell number after 24 hrs by MTT assay. It counts as functional, cell-based. The following applies: U-937, 24 h. (In general: Tetrazolium dyes change colour on reduction, which living cells bring about.)
A short description of test [10]: Cytotoxicity against human HL60 cells assessed as decrease in cell number after 24 hrs by MTT assay. The test is classed as functional, cell-based. The following applies: HL-60, 24 h.
The subject of test [11] is COLO 205. Nature of the test: Cytotoxicity against human COLO205 cells assessed as decrease in cell number after 24 hrs by MTT assay. It counts as functional, cell-based. The following applies: COLO 205, 24 h.
Test [12] concerns Klebsiella pneumoniae. Kind of test: Antibacterial activity against Klebsiella pneumoniae assessed as compound concentration required to complete growth inhibition at 8 hrs by tube dilution method. It counts as functional.
The subject of another test is Aspergillus terreus. Nature of the test: Antifungal activity against Aspergillus terreus assessed as growth inhibition at 0.5 mg/ml after 48 hrs by well diffusion method. It counts as functional, organism-based.
In the next test the test system is Aspergillus fumigatus. Nature of the test: Antifungal activity against Aspergillus fumigatus assessed as growth inhibition at 0.5 mg/ml after 48 hrs by well diffusion method. The test is classed as functional, organism-based.
The subject of test [13] is THP-1. Kind of test: Cytotoxicity against human THP1 cells assessed as decrease in cell number after 24 hrs by MTT assay. It counts as functional, cell-based. The following applies: THP-1, 24 h.
Test [14] relates to COLO 205. Nature of the test: Cytotoxicity against human COLO205 cells assessed as growth inhibition at 200 ug/ml after 24 hrs by MTT assay. It counts as functional, cell-based.
The test system of a further test is HL-60. Nature of the test: Cytotoxicity against human HL60 cells assessed as growth inhibition at 200 ug/ml after 24 hrs by MTT assay. It counts as functional, cell-based.
A further test deals with B16-F10. Kind of test: Cytotoxicity against mouse B16F10 cells assessed as growth inhibition at 200 ug/ml after 24 hrs by MTT assay. It counts as functional, cell-based.
For another test, the system named is U-937. Kind of test: Cytotoxicity against human U937 cells assessed as growth inhibition at 200 ug/ml after 24 hrs by MTT assay. The test is classed as functional, cell-based.
The subject of test [15] is THP-1. Kind of test: Cytotoxicity against human THP1 cells assessed as growth inhibition at 200 ug/ml after 24 hrs by MTT assay. The test is classed as functional, cell-based.

≈ marks a conversion by molar mass, not a printed value. Calls of active or inactive are those of the source. No cut-off for these calls is given here.

For orientation: MIC means the lowest concentration found to suppress growth. For orientation: IC50 means the concentration that gives 50% inhibition.

`C=C(C(=O)/C=C/C(C)=O)[C@@H]1CC(=O)[C@@]2(C)[C@@H]1[C@@H]1[C@H](C)CC[C@@H]12`: the MIC in the test on Escherichia coli [1], with Bacillus subtilis [4], in the test with Micrococcus luteus [6] and in the test with Klebsiella pneumoniae [12] was 50 µg/mL (≈ 166 µM) throughout. In addition, the zone of inhibition at 500 µg/mL in the test on Micrococcus luteus [2] is 0 mm; in the test on Bacillus subtilis [5], 10.3 mm; with Klebsiella pneumoniae [7], 11.3 mm; in the test on Escherichia coli [8], 11 mm. Moreover, the IC50 in test [3] came out at 3.62 µg/mL (≈ 12.1 µM); in [9] it was 7.52 µg/mL (≈ 25 µM); in [10] it was 48.4 µg/mL (≈ 161 µM); in the test on COLO 205 [11] it was 32 µg/mL (≈ 107 µM); with THP-1 [13], 18.1 µg/mL (≈ 60.3 µM). The zone of inhibition worked out at 19.3 mm with Aspergillus niger, 19.3 mm with Aspergillus terreus and 22 mm in the test with Aspergillus fumigatus.

Take `C=C(C(/C=C/C(C)(O)COC(C)=O)OC(C)=O)[C@@H]1C[C@@H](OC(C)=O)[C@@]2(C)[C@@H]1[C@@H]1[C@H](C)CC[C@@H]12` (some centres not stated): the “growth inhibition (GI)” value in the test on COLO 205 [14] and with HL-60 was “inactive” throughout. For the same compound, the MIC in the test on Escherichia coli [1] is 100 µg/mL (≈ 216 µM); in the test on Bacillus subtilis [4], 100 µg/mL (≈ 216 µM); in the test on Micrococcus luteus [6] it was 100 µg/mL (≈ 216 µM); in the test on Klebsiella pneumoniae [12], 200 µg/mL (≈ 432 µM). The zone of inhibition at 500 µg/mL was found to be 17.3 mm in the test on Micrococcus luteus [2], 18 mm in the test on Bacillus subtilis [5], 16.3 mm in the test on Klebsiella pneumoniae [7] and 21.3 mm in the test with Escherichia coli [8]. In addition, the half-maximal inhibitory concentration (IC50) is 54.1 µg/mL (≈ 117 µM) in [3], 38.4 µg/mL (≈ 83.1 µM) in [9] and 188 µg/mL (≈ 407 µM) in the test on THP-1 [13].

As to `C=C(CC(=O)C=C(C)C)[C@@H]1CC(=O)[C@@]2(C)[C@@H]1[C@@H]1[C@H](C)CC[C@@H]12`, the “growth inhibition (GI)” value in the test with B16-F10 and in the test on HL-60 was “inactive” in each case. Besides, the MIC worked out at 200 µg/mL (≈ 666 µM) in the test on Escherichia coli [1], 400 µg/mL (≈ 1330 µM) in the test on Bacillus subtilis [4], 200 µg/mL (≈ 666 µM) in the test on Micrococcus luteus [6] and 200 µg/mL (≈ 666 µM) in the test on Klebsiella pneumoniae [12]. In addition, the zone of inhibition at 500 µg/mL amounted to 11.3 mm in the test on Micrococcus luteus [2], 0 mm in the test on Bacillus subtilis [5], 12.7 mm with Klebsiella pneumoniae [7] and 10 mm in the test on Escherichia coli [8]. The IC50 in [9] worked out at 47.5 µg/mL (≈ 158 µM); in the test on COLO 205 [11] it was 167 µg/mL (≈ 557 µM); with THP-1 [13], 113 µg/mL (≈ 377 µM).

As for `C=C(C(O)/C=C/C(C)(O)CO)[C@@H]1C[C@@H](O)[C@@]2(C)[C@@H]1[C@@H]1[C@H](C)CC[C@@H]12` (mixture of isomers), the MIC in the test on Escherichia coli [1], in the test with Bacillus subtilis [4], in the test on Micrococcus luteus [6] and in the test with Klebsiella pneumoniae [12] was 200 µg/mL throughout. Also, the zone of inhibition at 500 µg/mL in the test on Micrococcus luteus [2] worked out at 12.3 mm; in the test with Bacillus subtilis [5], 12.7 mm; in the test on Klebsiella pneumoniae [7], 12.3 mm; in the test with Escherichia coli [8], 11.7 mm. The values for the IC50 (in [3]; with COLO 205 [11]; in the test on THP-1 [13]) were 196 µg/mL, 17.4 µg/mL and 55.6 µg/mL, respectively. Besides, the “growth inhibition (GI)” value with U-937 and with HL-60 was “inactive” throughout.

In the case of `C=C(C(O)/C=C/C(C)(O)COC(C)=O)[C@@H]1C[C@@H](O)[C@@]2(C)[C@@H]1[C@@H]1[C@H](C)CC[C@@H]12` (mixture of isomers), the “growth inhibition (GI)” value in the test with COLO 205 [14] and in the test on HL-60 was “inactive” in each case. Moreover, the MIC with Escherichia coli [1] stood at 200 µg/mL; in the test with Bacillus subtilis [4], 200 µg/mL; in the test with Micrococcus luteus [6] it was 400 µg/mL; in the test on Klebsiella pneumoniae [12], 200 µg/mL. Moreover, the zone of inhibition at 500 µg/mL in the test with Micrococcus luteus [2] was found to be 12 mm; in the test with Bacillus subtilis [5], 10.3 mm; in the test on Klebsiella pneumoniae [7], 12.3 mm; in the test with Escherichia coli [8], 13 mm. For the same compound, the IC50 was 99.8 µg/mL in test [3], 144 µg/mL in test [9] and 67 µg/mL in the test with THP-1 [13].

For the compound `C=C(C(/C=C/C(C)(O)COC(C)=O)OC(C)=O)[C@@H]1C[C@@H](O)[C@@]2(C)[C@@H]1[C@@H]1[C@H](C)CC[C@@H]12` (mixture of isomers), the “growth inhibition (GI)” value with COLO 205 [14], with THP-1 [15], in the test on U-937 and in the test on HL-60 was “inactive” in each case. Also, the MIC with Escherichia coli [1] was 100 µg/mL; in the test with Bacillus subtilis [4], 100 µg/mL; in the test on Micrococcus luteus [6], 100 µg/mL; in the test on Klebsiella pneumoniae [12], 200 µg/mL. Moreover, the zone of inhibition at 500 µg/mL in the test on Micrococcus luteus [2] worked out at 12.3 mm; in the test on Bacillus subtilis [5], 11.7 mm; with Klebsiella pneumoniae [7] it was 12.7 mm; in the test on Escherichia coli [8], 14.3 mm. Besides, the IC50 in test [3] came to 82 µg/mL.

As for `C[C@@H]1C[C@@H]([C@H](O)CC2CC(=O)NC(=O)C2)C(=O)[C@@H](C)C1` [CYCLOHEXIMIDE], the results for the zone of inhibition in the test with Aspergillus niger, in the test with Aspergillus terreus and in the test on Aspergillus fumigatus were 17.7 mm, 15.7 mm and 16.3 mm, respectively.

`CC(=O)N1CCN(c2ccc(OCC3COC(Cn4ccnc4)(c4ccc(Cl)cc4Cl)O3)cc2)CC1` (configuration not stated) [KETOCONAZOLE]: the zone of inhibition with Aspergillus niger was 22.7 mm; in the test on Aspergillus terreus, 20 mm; in the test with Aspergillus fumigatus it was 20.7 mm.
